Measured values taken from paper PMC6768106, “The crystal structure of AcrR from Mycobacterium tuberculosis reveals a one‐component transcriptional regulation mechanism” (FEBS Open Bio, 2019).

Target: AcrR (Mycobacterium tuberculosis, UniProt O07229)
Sequence (O07229 entry or part of it): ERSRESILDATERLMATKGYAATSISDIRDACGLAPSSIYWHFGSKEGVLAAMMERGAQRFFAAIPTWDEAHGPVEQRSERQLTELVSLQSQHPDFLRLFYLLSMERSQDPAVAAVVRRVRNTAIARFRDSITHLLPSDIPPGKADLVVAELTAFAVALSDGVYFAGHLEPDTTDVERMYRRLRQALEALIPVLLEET

With `CCCCCCCCCCCCCCCC(=O)O` [palmitate] as the compound, how does the “STD-NMR; also EMSA (promoter DNA release) and CD titration” value read?
The value was “which reveals the binding between AcrR and palmitate”.
